Assay results from US10030020B2, “Spirocycle compounds and methods of making and using same” (Abide Therapeutics, Inc., priority 2016, dated 2018).

How the values were obtained:
FAAH [1] = target: T1, FAAH (Mus musculus (Mouse), UniProt O08914); assay: In vitro competitive activity-based protein profiling (mouse brain membrane fraction or cell lysates), FAAH band; assay type: biochemical; settings: mouse proteome; for IC50: competitive ABPP; for inhibition at 1 µM: read-out: FAAH % Inh 1 μM (mouse)
T1 sequence (O08914 whole entry): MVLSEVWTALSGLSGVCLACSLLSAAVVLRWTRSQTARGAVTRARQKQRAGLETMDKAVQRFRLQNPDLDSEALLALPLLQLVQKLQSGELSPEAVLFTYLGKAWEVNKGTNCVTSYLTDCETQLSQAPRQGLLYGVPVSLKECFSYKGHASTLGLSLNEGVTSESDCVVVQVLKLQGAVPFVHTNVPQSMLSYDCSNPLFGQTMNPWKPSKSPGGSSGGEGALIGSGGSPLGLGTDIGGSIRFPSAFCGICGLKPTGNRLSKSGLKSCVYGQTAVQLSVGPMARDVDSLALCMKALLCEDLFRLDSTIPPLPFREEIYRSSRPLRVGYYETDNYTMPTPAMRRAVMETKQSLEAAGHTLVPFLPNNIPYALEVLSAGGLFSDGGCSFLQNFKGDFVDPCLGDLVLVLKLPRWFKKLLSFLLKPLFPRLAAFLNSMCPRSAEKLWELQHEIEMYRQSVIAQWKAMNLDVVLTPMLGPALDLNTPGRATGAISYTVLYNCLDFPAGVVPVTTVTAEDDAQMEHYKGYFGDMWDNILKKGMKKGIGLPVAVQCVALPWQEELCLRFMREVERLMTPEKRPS
Procedure, shortened: (§1)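 Residual hydrolase activity was measured as gel band fluorescence after FP-Rh labelling (30 min, 37° C) of proteomes pretreated 30 min at 37° C with inhibitor.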

ABHD6 [2] = target: T2, ABHD6 (Mus musculus (Mouse), UniProt Q8R2Y0); assay: In vitro competitive activity-based protein profiling (mouse brain membrane fraction or cell lysates), ABHD6 band; assay type: biochemical; settings: mouse proteome; for IC50: competitive ABPP; for inhibition at 1 µM: read-out: ABHD6 % Inh 1 μM (mouse)
T2 sequence (Q8R2Y0 whole entry): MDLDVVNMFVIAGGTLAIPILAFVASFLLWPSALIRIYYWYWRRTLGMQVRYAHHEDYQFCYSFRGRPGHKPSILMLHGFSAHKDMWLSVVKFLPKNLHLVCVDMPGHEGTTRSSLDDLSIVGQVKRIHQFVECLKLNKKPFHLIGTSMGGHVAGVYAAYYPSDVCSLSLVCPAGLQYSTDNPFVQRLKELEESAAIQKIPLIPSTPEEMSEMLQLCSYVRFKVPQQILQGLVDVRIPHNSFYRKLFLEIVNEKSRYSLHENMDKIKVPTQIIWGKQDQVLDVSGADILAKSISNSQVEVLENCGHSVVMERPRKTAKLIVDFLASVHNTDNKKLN
Procedure, shortened: as §1

FAAH [3] = target: T1, FAAH; assay: Mouse brain proteomes from inhibitor treated mice (oral gavage, sacrificed 4 h after administration, ABPP analysis), FAAH; assay type: in vivo, mouse (C57Bl/6J); settings: 5 mg/kg oral gavage
Procedure, shortened: (§2)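 Wild-type C57Bl/6J mice; p.o. gavage, vehicle e.g. PEG400/EtOH/PBS 7/2/1; 5 mg/kg. Brain harvested 4 h post-dose, proteome profiled by ABPP. Read-out: % inhibition.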

MAGL [4] = target: T3, MAGL (Mus musculus (Mouse), UniProt O35678); assay: Mouse brain proteomes from inhibitor treated mice (oral gavage, sacrificed 4 h after administration, ABPP analysis); assay type: in vivo, mouse (C57Bl/6J); settings: 5 mg/kg oral gavage
T3 sequence (O35678 whole entry): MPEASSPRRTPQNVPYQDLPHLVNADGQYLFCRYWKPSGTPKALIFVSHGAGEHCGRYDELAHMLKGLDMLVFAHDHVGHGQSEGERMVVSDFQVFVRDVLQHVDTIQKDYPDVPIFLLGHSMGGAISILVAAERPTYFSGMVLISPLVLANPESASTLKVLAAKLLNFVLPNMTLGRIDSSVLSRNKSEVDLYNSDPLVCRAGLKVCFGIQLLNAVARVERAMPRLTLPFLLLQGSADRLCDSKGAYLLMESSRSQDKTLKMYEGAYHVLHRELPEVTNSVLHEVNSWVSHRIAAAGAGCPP
Procedure, shortened: as §2

MAGL [5] = target: T3, MAGL; assay: In vitro competitive activity-based protein profiling (mouse brain membrane fraction or cell lysates), MAGL band; assay type: biochemical; settings: mouse proteome; for IC50: competitive ABPP; for inhibition at 1 µM: read-out: MAGL % Inh 1 μM (mouse)
Protocol: In Vitro Competitive Activity-Based Protein Profiling.
Proteomes (mouse brain membrane fraction or cell lysates) (50 μL, 1.0 mg/mL total protein concentration) were preincubated with varying concentrations of inhibitors at 37° C. After 30 min, FP—Rh (1.0 μL, 50 μM in DMSO) was added and the mixture was incubated for another 30 min at 37° C. Reactions were quenched with SDS loading buffer (50 μL-4×) and run on SDS-PAGE.

ABHD6 [6] = target: T2, ABHD6; assay: Mouse brain proteomes from inhibitor treated mice (oral gavage, sacrificed 4 h after administration, ABPP analysis), ABHD6; assay type: in vivo, mouse (C57Bl/6J); settings: 5 mg/kg oral gavage
Procedure, shortened: as §2

Compound	IC50 (FAAH [1]) [nM]	IC50 (ABHD6 [2]) [nM]	FAAH % Inh 5 mg/kg (mouse) (FAAH [3])	MAGL % Inh 5 mg/kg (mouse) (MAGL [4])	IC50 (MAGL [5]) [nM]	ABHD6 % Inh 5 mg/kg (mouse) (ABHD6 [6])	inhibition at 1 µM (FAAH [1]) [%]	inhibition at 1 µM (ABHD6 [2]) [%]	inhibition at 1 µM (MAGL [5]) [%]
COc1c(Cl)cccc1CN1CCCC12CCN(C(=O)OC(C(F)(F)F)C(F)(F)F)CC2 [Example 10, 1,1,1,3,3,3-Hexafluoropropan-2-yl 1-(3-chloro-2-methoxybenzyl)-1,8-diazaspiro[4.5]decane-8-carboxylate]	> 1000	> 1000	## (## is equal to or greater than 25% but less than 75%)	### (### is ≥75%)	< 100	# (# is <25%)			
CC1(C)CC2(CCN(C(=O)OC(C(F)(F)F)C(F)(F)F)CC2)CN1Cc1ccc(Cl)cc1 [Example 48, 1,1,1,3,3,3-Hexafluoropropan-2-yl 2-(4-chlorobenzyl)-3,3-dimethyl-2,8-diazaspiro[4.5]decane-8-carboxylate]	> 1000	100 to 1000	# (# is <25%)	### (### is ≥75%)	< 100	## (## is equal to or greater than 25% but less than 75%)	< 25	≥ 75	> 75
O=C(OC(C(F)(F)F)C(F)(F)F)N1CCC2(CCCN2Cc2ccc(C(F)(F)F)cc2N2CCC(F)(F)CC2)CC1 [Example 90, 1,1,1,3,3,3-Hexafluoropropan-2-yl 1-(2-(4,4-difluoropiperidin-1-yl)-4-(trifluoromethyl)benzyl)-1,8-diazaspiro[4.5]decane-8-carboxylate]	> 1000	> 1000	# (# is <25%)	## (## is equal to or greater than 25% but less than 75%)	< 100	# (# is <25%)	< 25	< 25	> 75
CS(=O)(=O)N1CCc2cccc(CN3CCCC34CCN(C(=O)OC(C(F)(F)F)C(F)(F)F)CC4)c2C1 [Example 146, 1,1,1,3,3,3-Hexafluoropropan-2-yl 1-((2-methanesulfonyl-1,2,3,4-tetrahydroisoquinolin-8-yl)methyl)-1,8-diazaspiro[4.5]decane-8-carboxylate]	> 1000	> 1000	# (# is <25%)	### (### is ≥75%)	< 100	## (## is equal to or greater than 25% but less than 75%)	< 25	25 to 75	> 75
CCc1cc(CN2CCC3(CCN(C(=O)OC(C(F)(F)F)C(F)(F)F)CC3)C2)ccc1F [Example 152, 1,1,1,3,3,3-Hexafluoropropan-2-yl 2-(3-ethyl-4-fluorobenzyl)-2,8-diazaspiro[4.5]decane-8-carboxylate]	> 1000	100 to 1000	# (# is <25%)	### (### is ≥75%)	< 100	### (### is ≥75%)	< 25	≥ 75	> 75
O=C(OC(C(F)(F)F)C(F)(F)F)N1CCC2(CCN(Cc3ccc(Cl)cc3N3CCCCC3)C2)CC1 [Example 24, 1,1,1,3,3,3-Hexafluoropropan-2-yl 2-(4-chloro-2-(piperidin-1-yl)benzyl)-2,8-diazaspiro[4.5]decane-8-carboxylate]	> 1000	> 1000	# (# is <25%)	### (### is ≥75%)	< 100	# (# is <25%)	< 25	< 25	> 75
O=C(OC(C(F)(F)F)C(F)(F)F)N1CCC2(CCN(Cc3c(N4CC5COCC5C4)cccc3C(F)(F)F)C2)CC1 (stereo not drawn) [Example 18, 1,1,1,3,3,3-Hexafluoropropan-2-yl 2-(2-(tetrahydro-1H-furo[3,4-c]pyrrol-5(3H)-yl)-6-(trifluoromethyl)benzyl)-2,8-diazaspiro[4.5]decane-8-carboxylate]	> 1000	> 1000	# (# is <25%)	## (## is equal to or greater than 25% but less than 75%)	< 100	# (# is <25%)	< 25	25 to 75	> 75
O=C(OC(C(F)(F)F)C(F)(F)F)N1CCC2(CCCN2Cc2cc(N3CCOCC3)cc(C(F)(F)F)c2)CC1 [Example 35, 1,1,1,3,3,3-Hexafluoropropan-2-yl 1-(3-morpholino-5-(trifluoromethyl)benzyl)-1,8-diazaspiro[4.5]decane-8-carboxylate]	> 1000	> 1000	# (# is <25%)	### (### is ≥75%)	< 100	# (# is <25%)	< 25	< 25	> 75
COc1cccc(CN2CCCC23CCN(C(=O)OC(C(F)(F)F)C(F)(F)F)CC3)c1Cl [Example 7, 1,1,1,3,3,3-Hexafluoropropan-2-yl 1-(2-chloro-3-methoxybenzyl)-1,8-diazaspiro[4.5]decane-8-carboxylate]	> 1000	> 1000	### (### is ≥75%)	### (### is ≥75%)	< 100	# (# is <25%)			
COc1cc(Cl)ccc1CN1CCCC12CCN(C(=O)OC(C(F)(F)F)C(F)(F)F)CC2 [Example 9, 1,1,1,3,3,3-Hexafluoropropan-2-yl 1-(4-chloro-2-methoxybenzyl)-1,8-diazaspiro[4.5]decane-8-carboxylate]	> 1000	> 1000	# (# is <25%)	### (### is ≥75%)	< 100	# (# is <25%)			
O=C(OC(C(F)(F)F)C(F)(F)F)N1CCC2(CCCN2Cc2ccc(C(F)(F)F)cc2N2CC3CCC(C2)O3)CC1 [Example 73, 1,1,1,3,3,3-Hexafluoropropan-2-yl 1-(2-(8-oxa-3-azabicyclo[3.2.1]octan-3-yl)-4-(trifluoromethyl)benzyl)-1,8-diazaspiro[4.5]decane-8-carboxylate]	> 1000	> 1000	# (# is <25%)	## (## is equal to or greater than 25% but less than 75%)	< 100	# (# is <25%)	< 25	< 25	> 75
CCN1CCN(c2cc(C(F)(F)F)ccc2CN2CCCC23CCN(C(=O)OC(C(F)(F)F)C(F)(F)F)CC3)CC1 [Example 87, 1,1,1,3,3,3-Hexafluoropropan-2-yl 1-(2-(4-ethylpiperazin-1-yl)-4-(trifluoromethyl)benzyl)-1,8-diazaspiro[4.5]decane-8-carboxylate]	> 1000	> 1000	# (# is <25%)	## (## is equal to or greater than 25% but less than 75%)	< 100	# (# is <25%)	< 25	< 25	> 75
